Patent publication US20250122219A1 (priority 2023, published 2025)
Like-named read-outs stand apart in the source and are kept apart here.

Key:
[1] = Cytotoxicity assay in MT-4 cells; assay type: cell-based; details: human; uninfected MT-4 cells, 5 days incubation, Cell Titer Glo; read-out: MT4 CC50
Outline: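 Uninfected MT-4 cells exposed to serially diluted compounds in RPMI with 10% FBS for 5 days at 37 °C. Viability by Cell Titer Glo chemiluminescence. Puromycin […] as baseline cytotoxicity control.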

HIV-1 (IIIB) = assay: Antiviral assay in MT-4 cells; assay type: cell-based
Outline: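 HIV-1 IIIB-infected MT-4 cells (fresh 1:250 virus stock dilution; mock-infected controls) incubated 5 days at 37 °C with serially diluted compounds in RPMI/10% FBS; 5 μM AZT as positive control. Cell viability read by CellTiter-Glo luminescence as measure of protection from viral replication.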

[2] = Human immunodeficiency virus 1, MT4, 120 h, HIV-1 IIIB in MT-4 cells, 5 days incubation, Cell Titer Glo, read-out: MT4 EC50

EC50 (HIV-1 (IIIB); [2]) | Structure (SMILES) | CC50 at 5 days [1] | EC50 (HIV-1 (IIIB); Human immunodeficiency virus 1, IIIB, MT4, 120 h, read-out: MT4 EC50 (nM))
0.319 nM | CCCCCCCC(=O)Oc1c2n(cc(C(=O)NCc3ccc(F)cc3F)c1=O)[C@@H]1CN(C2=O)[C@@H](C)CC[C@]12CC(C)=NO2 [Example 41, (3′S,5S,7′R)-10′-((2,4-difluorobenzyl)carbamoyl)-3,3′-dimethyl-1′,11′-dioxo-1′,4′,5′,11′-tetrahydro-3′H,4H,7′H-spiro[isoxazole-5,6′-[2,7]methanopyrido[1,2-a][1,4]diazonin]-12′-yl octanoate] | 11500 nM | 
1.54 nM | CC1=NO[C@@]2(CC[C@H](C)N3C[C@H]2n2cc(C(=O)NCc4ccc(F)cc4F)c(=O)c(OC(=O)CCC(C)C)c2C3=O)C1 [Example 57, (3′S,5S,7′R)-10′-((2,4-difluorobenzyl)carbamoyl)-3,3′-dimethyl-1′,11′-dioxo-1′,4′,5′,11′-tetrahydro-3′H,4H,7′H-spiro[isoxazole-5,6′-[2,7]methanopyrido[1,2-a][1,4]diazonin]-12′-yl 4-methylpentanoate] | 23100 nM | 
0.516 nM | CCCCCCCOC(=O)Oc1c2n(cc(C(=O)NCc3ccc(F)cc3F)c1=O)[C@@H]1CN(C2=O)[C@@H](C)CC[C@]12CC(OC)=NO2 [Example 134, (3′S,5S,7′R)-10′-((2,4-difluorobenzyl)carbamoyl)-3-methoxy-3′-methyl-1′,11′-dioxo-1′,4′,5′,11′-tetrahydro-3′H,4H,7′H-spiro[isoxazole-5,6′-[2,7]methanopyrido[1,2-a][1,4]diazonin]-12′-yl heptyl carbonate] | 25700 nM | 
2.48 nM | COC1=NO[C@@]2(CC[C@H](C)N3C[C@H]2n2cc(C(=O)NCc4ccc(F)cc4F)c(=O)c(OC(=O)CCCCCC(C)C)c2C3=O)C1 [Example 64, (3′S,5S,7′R)-10′-((2,4-difluorobenzyl)carbamoyl)-3-methoxy-3′-methyl-1′,11′-dioxo-1′,4′,5′,11′-tetrahydro-3′H,4H,7′H-spiro[isoxazole-5,6′-[2,7]methanopyrido[1,2-a][1,4]diazonin]-12′-yl 7-methyloctanoate] | 38100 nM | 
0.313 nM | CC1=NO[C@@]2(CC[C@H](C)N3C[C@H]2n2cc(C(=O)NCc4ccc(F)cc4F)c(=O)c(OC(=O)CC(C)C)c2C3=O)C1 [Example 55, (3′S,5S,7′R)-10′-((2,4-difluorobenzyl)carbamoyl)-3,3′-dimethyl-1′,11′-dioxo-1′,4′,5′,11′-tetrahydro-3′H,4H,7′H-spiro[isoxazole-5,6′-[2,7]methanopyrido[1,2-a][1,4]diazonin]-12′-yl 3-methylbutanoate] | 16400 nM | 
2.14 nM | CCCCCC(=O)OCOc1c2n(cc(C(=O)NCc3ccc(F)cc3F)c1=O)[C@@H]1CN(C2=O)[C@@H](C)CC[C@]12CC(C)=NO2 [Example 92, (((3′S,5S,7′R)-10′-((2,4-difluorobenzyl)carbamoyl)-3,3′-dimethyl-1′,11′-dioxo-1′,4′,5′,11′-tetrahydro-3′H,4H,7′H-spiro[isoxazole-5,6′-[2,7]methanopyrido[1,2-a][1,4]diazonin]-12′-yl)oxy)methyl hexanoate] | 21500 nM | 

Continued, compound first:

Structure (SMILES) | EC50 (HIV-1 (IIIB); [2]) | CC50 at 5 days [1] | EC50 (HIV-1 (IIIB); Human immunodeficiency virus 1, IIIB, MT4, 120 h, read-out: MT4 EC50 (nM))
CCCCCCCCCCOC(=O)OCOc1c2n(cc(C(=O)NCc3ccc(F)cc3F)c1=O)[C@@H]1CN(C2=O)[C@@H](C)CC[C@]12CC(C)=NO2 [Example 188, decyl ((((3′S,5S,7′R)-10′-((2,4-difluorobenzyl)carbamoyl)-3,3′-dimethyl-1′,11′-dioxo-1′,4′,5′,11′-tetrahydro-3′H,4H,7′H-spiro[isoxazole-5,6′-[2,7]methanopyrido[1,2-a][1,4]diazonin]-12′-yl)oxy)methyl) carbonate] | 1.55 nM | 38500 nM | 
COC1=NO[C@@]2(CC[C@H](C)N3C[C@H]2n2cc(C(=O)NCc4ccc(F)cc4F)c(=O)c(OCOC(=O)OCCC(C)C)c2C3=O)C1 [Example 202, (((3′S,5S,7′R)-10′-((2,4-difluorobenzyl)carbamoyl)-3-methoxy-3′-methyl-1′,11′-dioxo-1′,4′,5′,11′-tetrahydro-3′H,4H,7′H-spiro[isoxazole-5,6′-[2,7]methanopyrido[1,2-a][1,4]diazonin]-12′-yl)oxy)methyl isopentyl carbonate] | 2.71 nM | 21600 nM | 
CC1=NO[C@@]2(CC[C@H](C)N3C[C@H]2n2cc(C(=O)NCc4ccc(F)cc4F)c(=O)c(OCOC(=O)OCCCCCCCC(C)C)c2C3=O)C1 [Example 211, (((3′S,5S,7′R)-10′-((2,4-difluorobenzyl)carbamoyl)-3,3′-dimethyl-1′,11′-dioxo-1′,4′,5′,11′-tetrahydro-3′H,4H,7′H-spiro[isoxazole-5,6′-[2,7]methanopyrido[1,2-a][1,4]diazonin]-12′-yl)oxy)methyl (8-methylnonyl) carbonate] | 3.73 nM | 36700 nM | 
CCCCCCCCCCCCCCCCCCOC(=O)OCOc1c2n(cc(C(=O)NCc3ccc(F)cc3F)c1=O)[C@@H]1CN(C2=O)[C@@H](C)CC[C@]12CC(C)=NO2 [Example 196, (((3′S,5S,7′R)-10′-((2,4-difluorobenzyl)carbamoyl)-3,3′-dimethyl-1′,11′-dioxo-1′,4′,5′,11′-tetrahydro-3′H,4H,7′H-spiro[isoxazole-5,6′-[2,7]methanopyrido[1,2-a][1,4]diazonin]-12′-yl)oxy)methyl octadecyl carbonate] | 18.4 nM | ≥ 50000 nM | 
CCCCC(=O)OCOc1c2n(cc(C(=O)NCc3ccc(F)cc3F)c1=O)[C@@H]1CN(C2=O)[C@@H](C)CC[C@]12CC(OC)=NO2 [Example 89, (((3′S,5S,7′R)-10′-((2,4-difluorobenzyl)carbamoyl)-3-methoxy-3′-methyl-1′,11′-dioxo-1′,4′,5′,11′-tetrahydro-3′H,4H,7′H-spiro[isoxazole-5,6′-[2,7]methanopyrido[1,2-a][1,4]diazonin]-12′-yl)oxy)methyl pentanoate] | 0.2 nM | 15800 nM | 
CCCCCCCOC(=O)OCOc1c2n(cc(C(=O)NCc3ccc(F)cc3F)c1=O)[C@@H]1CN(C2=O)[C@@H](C)CC[C@]12CC(OC)=NO2 [Example 184, (((3′S,5S,7′R)-10′-((2,4-difluorobenzyl)carbamoyl)-3-methoxy-3′-methyl-1′,11′-dioxo-1′,4′,5′,11′-tetrahydro-3′H,4H,7′H-spiro[isoxazole-5,6′-[2,7]methanopyrido[1,2-a][1,4]diazonin]-12′-yl)oxy)methyl heptyl carbonate] | 0.441 nM | 9980 nM | 
CCCOC(=O)OCOc1c2n(cc(C(=O)NCc3ccc(F)cc3F)c1=O)[C@@H]1CN(C2=O)[C@@H](C)CC[C@]12CC(OC)=NO2 [Example 175, (((3′S,5S,7′R)-10′-((2,4-difluorobenzyl)carbamoyl)-3-methoxy-3′-methyl-1′,11′-dioxo-1′,4′,5′,11′-tetrahydro-3′H,4H,7′H-spiro[isoxazole-5,6′-[2,7]methanopyrido[1,2-a][1,4]diazonin]-12′-yl)oxy)methyl propyl carbonate] | 2.06 nM | 23300 nM | 
COC1=NO[C@@]2(CC[C@H](C)N3C[C@H]2n2cc(C(=O)NCc4ccc(F)cc4F)c(=O)c(OC(=O)OCCCCC(C)C)c2C3=O)C1 [Example 155, (3′S,5S,7′R)-10′-((2,4-difluorobenzyl)carbamoyl)-3-methoxy-3′-methyl-1′,11′-dioxo-1′,4′,5′,11′-tetrahydro-3′H,4H,7′H-spiro[isoxazole-5,6′-[2,7]methanopyrido[1,2-a][1,4]diazonin]-12′-yl (5-methylhexyl) carbonate] | 1.19 nM | 17500 nM | 
COC1=NO[C@@]2(CC[C@H](C)N3C[C@H]2n2cc(C(=O)NCc4ccc(F)cc4F)c(=O)c(OCOC(=O)CCC(C)C)c2C3=O)C1 [Example 82, (((3′S,5S,7′R)-10′-((2,4-difluorobenzyl)carbamoyl)-3-methoxy-3′-methyl-1′,11′-dioxo-1′,4′,5′,11′-tetrahydro-3′H,4H,7′H-spiro[isoxazole-5,6′-[2,7]methanopyrido[1,2-a][1,4]diazonin]-12′-yl)oxy)methyl 4-methylpentanoate] |  | 17300 nM | 2.52 nM
CC1=NO[C@@]2(CC[C@H](C)N3C[C@H]2n2cc(C(=O)NCc4ccc(F)cc4F)c(=O)c(OCOC(=O)OCCC(C)C)c2C3=O)C1 [Example 201, (((3′S,5S,7′R)-10′-((2,4-difluorobenzyl)carbamoyl)-3,3′-dimethyl-1′,11′-dioxo-1′,4′,5′,11′-tetrahydro-3′H,4H,7′H-spiro[isoxazole-5,6′-[2,7]methanopyrido[1,2-a][1,4]diazonin]-12′-yl)oxy)methyl isopentyl carbonate] | 4.47 nM | 16900 nM | 
CCC(=O)OCOc1c2n(cc(C(=O)NCc3ccc(F)cc3F)c1=O)[C@@H]1CN(C2=O)[C@@H](C)CC[C@]12CC(C)=NO2 [Example 86, (((3′S,5S,7′R)-10′-((2,4-difluorobenzyl)carbamoyl)-3,3′-dimethyl-1′,11′-dioxo-1′,4′,5′,11′-tetrahydro-3′H,4H,7′H-spiro[isoxazole-5,6′-[2,7]methanopyrido[1,2-a][1,4]diazonin]-12′-yl)oxy)methyl propionate] | 2.53 nM | 21000 nM | 
CCCCCCCCCCOC(=O)OCOc1c2n(cc(C(=O)NCc3ccc(F)cc3F)c1=O)[C@@H]1CN(C2=O)[C@@H](C)CC[C@]12CC(OC)=NO2 [Example 189, decyl ((((3′S,5S,7′R)-10′-((2,4-difluorobenzyl)carbamoyl)-3-methoxy-3′-methyl-1′,11′-dioxo-1′,4′,5′,11′-tetrahydro-3′H,4H,7′H-spiro[isoxazole-5,6′-[2,7]methanopyrido[1,2-a][1,4]diazonin]-12′-yl)oxy)methyl) carbonate] | 3.54 nM | ≥ 50000 nM | 
